Experimental data taken from article PMC7753047, “Reversal of Cancer Multidrug Resistance (MDR) Mediated by ATP-Binding Cassette Transporter G2 (ABCG2) by AZ-628, a RAF Kinase Inhibitor” (Frontiers in Cell and Developmental Biology, 2020).

Experiments:
ABCG2 [1] = molecular target: T1, ABCG2 (Homo sapiens, UniProt Q9UNQ0); experiment: vanadate-sensitive ATPase assay in ABCG2 membranes (stimulation up to […]); also inhibition of [3H]-mitoxantrone efflux at […]; assay type: cell-based; parameters: full-length human ABCG2 in membranes of transfected HEK293 cells; conditions: read-out: vanadate-sensitive ATPase assay in ABCG2 membranes (stimulation up to 4.3-fold)
T1 sequence (Q9UNQ0 1-655): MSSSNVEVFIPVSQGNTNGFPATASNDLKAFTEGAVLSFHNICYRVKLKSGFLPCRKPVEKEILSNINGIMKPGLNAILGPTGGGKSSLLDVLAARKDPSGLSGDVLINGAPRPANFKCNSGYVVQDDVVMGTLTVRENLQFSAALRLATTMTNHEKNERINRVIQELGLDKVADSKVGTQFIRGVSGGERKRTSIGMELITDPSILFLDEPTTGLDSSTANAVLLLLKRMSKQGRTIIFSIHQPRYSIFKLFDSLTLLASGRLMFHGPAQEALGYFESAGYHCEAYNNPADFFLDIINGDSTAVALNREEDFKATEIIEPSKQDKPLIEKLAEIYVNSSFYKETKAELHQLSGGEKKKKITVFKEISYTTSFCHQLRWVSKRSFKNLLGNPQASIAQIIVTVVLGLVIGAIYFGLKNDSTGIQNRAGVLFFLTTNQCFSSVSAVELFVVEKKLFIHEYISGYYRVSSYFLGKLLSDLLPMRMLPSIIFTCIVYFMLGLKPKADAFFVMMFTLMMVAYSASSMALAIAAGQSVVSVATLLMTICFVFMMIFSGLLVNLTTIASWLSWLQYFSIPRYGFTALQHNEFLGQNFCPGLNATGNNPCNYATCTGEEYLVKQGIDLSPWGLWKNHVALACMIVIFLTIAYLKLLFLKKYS

ABCG2 [2] = molecular target: T1, ABCG2; experiment: vanadate-sensitive ATPase assay in ABCG2 membranes (stimulation); assay type: cell-based; parameters: full-length human ABCG2 in membranes of transfected HEK293 cells
ABCG2 [3] = molecular target: T1, ABCG2

Structure (SMILES) | vanadate-sensitive ATPase assay in ABCG2 membranes (stimulation) (ABCG2 [2]) | other results
Cc1ccc(NC(=O)c2cccc(C(C)(C)C#N)c2)cc1Nc1ccc2ncn(C)c(=O)c2c1 [AZ-628] | – | maximal fold induction (ABCG2 [1]): 4.3
COc1ccc([C@@H](O)c2cc(-c3ncnc4cc(N5CCOCC5)ccc34)c(F)cc2Cl)nn1 [M3814] | The results showed that AZ-628 stimulated ABCG2 ATPase to a higher level than M3814. | –
O=C1c2c(O)ccc(O)c2C(=O)c2c(NCCNCCO)ccc(NCCNCCO)c21 [mitoxantrone] | – | [3H]-mitoxantrone efflux from ABCG2-overexpressing cells (ABCG2 [3]): plotted to reflect the efflux of [^3H]-mitoxantrone by ABCG2
CC[C@@]1(O)C(=O)OCc2c1cc1n(c2=O)Cc2cc3c(CN(C)C)c(O)ccc3nc2-1 [topotecan] | Compared with the ABCG2 substrate topotecan, which is also an ABCG2 ATPase stimulator, AZ-628 showed stronger activation effects | –
